Assay results reported in PubChem BioAssay AID720588 (Broad Institute, 2013).
Calls of active or inactive are those of the source.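 Rule for the calls: active = fitted curve falls past a set limit of signal loss at no more than twice the top dose; inconclusive = flat fit between 30 and 70% signal loss, or poor fit; inactive = signal rise, flat within 30%, or crossing too high.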

Experiment: ATP-based viability loss in HEK293T cells – cell-based, CellTiter-Glo luminescence, cherry-pick, set 3, cytotoxicity control, dose response (AID 720588)
Settings: HEK293T viability, CellTiter-Glo ATP luminescence, 72 h; at 2.85 µM (top of the series)

SMILES | activity change, negative = cytotoxicity
COC(=O)C[C@@H]1CC[C@@H]2[C@H](COc3ccc(NC(=O)Nc4cccc(Cl)c4)cc3C(=O)N2C)O1 | 39.1% (inactive)

Same assay, conditions: HEK293T viability, CellTiter-Glo ATP luminescence, 72 h; at 23.5 µM (top of the series)

SMILES | activity change, negative = cytotoxicity
C[C@H]1CN([C@@H](C)CO)C(=O)Cc2cc(NC(=O)CCCCCC(=O)Nc3ccccc3N)ccc2O[C@H]1CN(C)Cc1ccc(Cl)c(Cl)c1 | -33.8% (inactive)
COC(=O)C[C@@H]1CC[C@@H]2[C@H](COc3ccc(NC(=O)c4cccc(Cl)c4)cc3C(=O)N2C)O1 | -19.6% (inactive)
C[C@H](CO)N1C[C@H](C)[C@H](CN(C)Cc2ccccc2)Oc2ccc(NC(=O)CCCCCC(=O)Nc3ccccc3N)cc2CC1=O | -0.084% (inactive)

Same assay, conditions: HEK293T viability, CellTiter-Glo ATP luminescence, 72 h; at 26 µM (top of the series)

SMILES | activity change, negative = cytotoxicity
O=C(c1cccc(S(=O)(=O)NCc2ccccc2)c1)N1CCN(c2ccccc2)CC1 | -21.2% (inactive)
C[C@@H]1CN([C@@H](C)CO)C(=O)Cc2cc(NS(=O)(=O)c3cccs3)ccc2O[C@H]1CN(C)Cc1ccc(Cl)c(Cl)c1 | -34.4% (inactive)
Cc1c(-c2nc(-c3ccc(C(C)(C)C)cc3)no2)n(C)oc1=O | -15.2% (inactive)
CN(C)C(=O)c1cccc(-c2ccc(C3[C@@H]4CN(Cc5nccs5)C[C@H]3N4)cc2)c1 (some centres undefined) | 51.7% (inactive)
C[C@H](CO)N1C[C@H](C)[C@H](CN(C)Cc2ccc(Oc3ccccc3)cc2)Oc2ccc(NC(=O)CCCCCC(=O)Nc3ccccc3N)cc2CC1=O | -19.4% (inactive)
Cc1ccc(N2C(=O)c3cccc4c(N)ccc(c34)C2=O)c2cccnc12 | -19.1% (inactive)
CCCNC(=O)[C@@H]1[C@@H](CO)[C@@H]2Cn3c(ccc(-c4ccccc4)c3=O)[C@H]1N2C(=O)CC | 22.7% (inactive)
O=C(O)c1cccc(N/N=C/c2cccs2)c1 | -19.1% (inactive)
COc1ccc(C(=O)CN2C(=O)c3ccccc3S2(=O)=O)cc1 | -13.5% (inactive)
COc1ccc(S(=O)(=O)N=Nc2c(O)[nH]c3ccccc23)cc1 | 16.2% (inactive)
Cc1ccc(S(=O)(=O)Nc2ccc3c(c2)C(=O)N([C@H](C)CO)C[C@@H](C)[C@@H](CN(C)Cc2ccc(C(=O)Nc4ccccc4N)cc2)O3)cc1 | -2.74% (inactive)
COC(=O)C[C@@H]1CC[C@@H]2[C@@H](COc3ccc(NC(=O)Nc4cccc(F)c4)cc3C(=O)N2C)O1 | -28.1% (inactive)
CC(=O)c1ccc(N=Nc2ccc(C)cc2)cc1 | -17% (inactive)
CCCC[C@@H]1Cc2[nH][nH]c(=O)c2[C@H](c2ccc3ccccc3c2)O1 | 16.6% (inactive)
COC(=O)c1cccc(NC(=O)NC(=O)c2ccc(Cl)cc2)c1 | -17% (inactive)
COC(=O)c1cccc(NC(=O)NC(=O)c2ccccc2Cl)c1 | -19% (inactive)
COC(=O)C[C@H]1CC[C@H]2[C@H](COc3ccc(NC(=O)Nc4cccc(Cl)c4)cc3C(=O)N2C)O1 | -28.3% (inactive)
O=C1CCCC2=C1C(c1ccccn1)Nc1ccc(C(=O)c3ccccc3)cc1N2 (centres undefined) | 7.12% (inactive)
C(=Cc1c[nH]c2ccccc12)c1ccc2ccccc2n1 | -26.3% (inactive)
O=C(N/N=C/c1ccc[nH]1)c1cc(-c2ccc(Cl)cc2)nc2ccccc12 | -26.6% (inactive)
COc1cccc(S(=O)(=O)N(C)C[C@H]2OCc3cnnn3CCCC(=O)N([C@@H](C)CO)C[C@H]2C)c1 | 5% (inactive)
COc1ccc(C2=NNC(=Nc3cc(S(=O)(=O)N(C)C)ccc3C)SC2)c(OC)c1 | -17.5% (inactive)
O=C(N/N=C/c1cnc(N2CCCCC2)s1)c1ccc(C(F)(F)F)cc1 | -9.42% (inactive)
O=C(Nc1cccc(Oc2ccc3c(c2)C(=O)NC3=O)c1)c1cccs1 | -22.5% (inactive)

SMILES | activity change, negative = cytotoxicity
COc1cc(/C=N/NC(=O)c2csc3c2CCCC3)cc(OC)c1O | 0.867% (inactive)
CCCc1nc2ccc(NC(=O)c3cccs3)cc2c(=O)n1Cc1ccccc1Cl | -2.41% (inactive)
Cc1ccc(-c2ccc3c(c2)O[C@@H](CN(C)C(=O)Nc2ccc(F)cc2)[C@H](C)CN([C@@H](C)CO)S3(=O)=O)cc1 | 48.8% (inactive)
CCOc1ccc(N=C2C(=O)Nc3ccc(C)c(Br)c32)cc1 | -10.6% (inactive)
O=C(Nc1cccc(S(=O)(=O)N2CCCC2)c1)c1ccc(Cl)nc1 | -35.5% (inactive)
CC(=O)Nc1ccc(OCC(=O)N(CC(C)C)C2CCS(=O)(=O)C2)cc1 (centres undefined) | 10.7% (inactive)
COc1ccc(OC)c(-c2cc(C(F)(F)F)c3c(n2)sc2c(O)cc(=O)[nH]c23)c1 | 2.36% (inactive)
COC(=O)[C@H]1[C@H](CO)[C@H]2Cn3c(ccc(-c4ccccc4F)c3=O)[C@@H]1N2CC1CCCC1 | 56.8% (inactive)
CCNC(=O)c1cccc(S(=O)(=O)N2CCCCCC2)c1 | -6.96% (inactive)
OCC1OC(n2cnc3c(NCc4ccco4)ncnc32)C(O)C1O (centres undefined) | -35.2% (inactive)
Nc1ncn([C@@H]2O[C@H](CO)[C@@H](O)[C@H]2O)c(=O)n1 | 4.13% (inactive)
O=c1[nH]c(/C=C2\C=Nc3ccccc32)c(O)n1Cc1ccccc1F | -17.6% (inactive)
CN1C(=O)c2cc(NC(=O)c3ccc(Cl)cc3)ccc2OC[C@@H]2O[C@@H](CC(=O)NCc3cccc(F)c3)CC[C@H]21 | -5.64% (inactive)
N/C(Cc1nc(-c2ccc(F)cc2)cs1)=N\O | -17.4% (inactive)
CCN(CC)c1ccc(C2NC(=O)c3ccccc3N2)cc1 (centres undefined) | -18.3% (inactive)
COc1ccc(CCCNC(=O)C2Cc3c(-c4ccc5c(c4)OCO5)ccnc3O2)cc1 (centres undefined) | -7% (inactive)
O=C(C[C@@H]1CC[C@@H]2[C@H](COC[C@@H](O)CN2S(=O)(=O)c2ccc(F)cc2)O1)NCc1ccc(Cl)c(Cl)c1 | 2.6% (inactive)
COC(=O)C[C@@H]1CC[C@@H]2[C@H](COc3ccc(NC(=O)Nc4cccc(C#N)c4)cc3C(=O)N2C)O1 | 53.6% (inactive)
O=C(Nc1nc(-c2ccc(F)c(F)c2)cs1)c1ccc(OCC2CCCO2)cc1 (centres undefined) | -9.94% (inactive)
CCc1ccc(/C=C2\SC(=S)N(CCC(=O)Nc3cc(C)on3)C2=O)cc1 | 5.29% (inactive)
Nc1ccc(-c2cc3ccccc3oc2=O)cc1 | -22% (inactive)
COc1ccc(CN(C)c2ncnc3sccc23)c(OC)c1OC | -29.1% (inactive)
O=c1c2ccccc2oc2cc(C#CC3(O)CCCCC3)ccc12 | 15.7% (inactive)
Cc1cc(C)cc(OCC(=O)OCC(=O)Nc2cc(S(=O)(=O)N3CCOCC3)ccc2C)c1 | -14.2% (inactive)

SMILES | activity change, negative = cytotoxicity
CCN1C/C(=C/c2ccc(OC)c(O)c2)C(=O)/C(=C/c2ccc(OC)c(O)c2)C1 | -23.5% (inactive)
CCC(C)Cn1c(O)cc2nn(-c3nc4ccccc4s3)c(=O)c-2c1C (centres undefined) | 3.58% (inactive)
CC(C)c1ccccc1NC(=O)COC(=O)CCN1C(=O)/C(=C\C=C\c2ccccc2)SC1=S | -10.7% (inactive)
Cc1ccc(/C=C/C(=O)N2CCN(S(=O)(=O)c3c(C)c(C)cc(C)c3C)CC2)o1 | 16.1% (inactive)
COC(=O)C[C@@H]1CC[C@@H]2[C@H](COc3ccc(NC(=O)c4ccc(F)c(F)c4)cc3C(=O)N2C)O1 | 16.7% (inactive)
Nc1ccc(-c2cc3ccccc3c(=O)o2)cc1 | -6.69% (inactive)
CC1=NC(=O)C(N=Nc2cccc(C(=O)O)c2)N1c1ccccc1 (centres undefined) | -10% (inactive)
CN(C(=O)COC(=O)c1cc(-c2ccccc2Cl)nc2ccccc12)C1CCS(=O)(=O)C1 (centres undefined) | -26.1% (inactive)
Cc1ccc(S(=O)(=O)Nc2ccc3c(c2)C(=O)N([C@@H](C)CO)C[C@@H](C)[C@H](CN(C)Cc2ccc(C(F)(F)F)cc2)OCCCC[C@H](C)O3)cc1 | -33.3% (inactive)
O=C(O)c1ccc(N/N=C/c2ccc(OC(=O)c3cccc(Cl)c3)cc2)cc1 | -29.8% (inactive)
COc1ccc(-c2nc3c(s2)CCc2onc(-c4ccc(OC)cc4)c2-3)cc1 | -17.8% (inactive)
CC(C)CC(NC(=O)c1cccs1)c1nnc(SCc2ccc(Cl)c(Cl)c2)n1C (centres undefined) | -6.67% (inactive)
C[C@H]1CCCCO[C@H](CN(C)Cc2ccc(C(F)(F)F)cc2)[C@@H](C)CN([C@@H](C)CO)C(=O)c2cc(NC(=O)Nc3ccccc3)ccc2O1 | 0.212% (inactive)
C[C@@H]1CN([C@@H](C)CO)C(=O)Cc2cc(N(C)C)ccc2O[C@@H]1CN(C)Cc1ccccc1 | -17.5% (inactive)
CN(C)c1ccc(N=Nc2ccccc2Br)cc1 | -16.8% (inactive)
COc1cc(/C=N/NS(=O)(=O)c2ccc(C)cc2)ccc1OCc1cccc(C(=O)O)c1 | 5.87% (inactive)
C[C@@H]1CN([C@H](C)CO)S(=O)(=O)c2ccc(C#Cc3ccncc3)cc2O[C@@H]1CN(C)C(=O)Nc1ccc2c(c1)OCO2 | -4.95% (inactive)
O=C(CCCN1C(=O)/C(=C/c2ccccc2Cl)SC1=S)NNC(=O)c1ccc(Cl)cc1 | 24.3% (inactive)
CC(C)(C)c1ccc(Oc2ccc(NC(=O)C3CC=CCC3C(=O)O)cc2)cc1 (centres undefined) | -16.1% (inactive)
Oc1c(Cl)cc(Cl)c2cccnc12 | -45.5% (inactive)
COC(=O)C[C@@H]1CC[C@@H]2[C@H](COc3ccc(NC(=O)c4cc(C)on4)cc3C(=O)N2C)O1 | -12.8% (inactive)
O=C1NC(=O)N(CCc2ccc(F)cc2)C(=O)/C1=C/C=C/c1ccccc1 | -10.7% (inactive)
